From BindingDB's records for doi:10.1002/chir.1172 (The Royal Danish School of Pharmacy, 2001)
Where “and” joins values, the source holds several entries; their conditions need not be identical. Equal values may be shown once.

Assays:
[1] = target: Glutamate receptor ionotropic, NMDA 1 (Rattus norvegicus, UniProt P35439)
[2] = target: Glutamate receptor ionotropic, kainate 1 (Rattus norvegicus, UniProt P22756)
Glutamate receptor 3 = Glutamate receptor 3 (Rattus norvegicus, UniProt P19492)
Sequence of Glutamate receptor 3 (P19492 whole entry): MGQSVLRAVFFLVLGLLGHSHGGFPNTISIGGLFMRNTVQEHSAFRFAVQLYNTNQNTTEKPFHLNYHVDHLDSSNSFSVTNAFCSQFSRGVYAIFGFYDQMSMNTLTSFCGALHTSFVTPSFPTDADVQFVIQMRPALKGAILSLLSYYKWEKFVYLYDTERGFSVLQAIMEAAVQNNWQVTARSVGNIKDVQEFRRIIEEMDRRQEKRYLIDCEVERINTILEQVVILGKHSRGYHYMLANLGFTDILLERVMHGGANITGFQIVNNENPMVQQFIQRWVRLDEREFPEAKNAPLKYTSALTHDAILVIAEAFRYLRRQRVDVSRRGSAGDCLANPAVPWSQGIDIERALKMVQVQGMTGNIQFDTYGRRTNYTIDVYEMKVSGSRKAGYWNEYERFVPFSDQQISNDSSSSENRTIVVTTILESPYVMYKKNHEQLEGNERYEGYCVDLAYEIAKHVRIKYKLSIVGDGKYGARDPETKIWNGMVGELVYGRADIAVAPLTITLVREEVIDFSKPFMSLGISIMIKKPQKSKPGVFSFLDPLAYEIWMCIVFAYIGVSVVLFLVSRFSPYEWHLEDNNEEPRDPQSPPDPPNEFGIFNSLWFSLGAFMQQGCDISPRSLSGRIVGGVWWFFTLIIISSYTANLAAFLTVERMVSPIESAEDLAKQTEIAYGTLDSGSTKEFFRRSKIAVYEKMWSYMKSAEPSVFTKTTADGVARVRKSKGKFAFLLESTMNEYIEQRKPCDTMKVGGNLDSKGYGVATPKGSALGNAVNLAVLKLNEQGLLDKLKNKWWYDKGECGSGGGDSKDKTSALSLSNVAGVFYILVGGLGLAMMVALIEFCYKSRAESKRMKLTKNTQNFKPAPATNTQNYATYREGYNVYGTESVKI

Sequence of Glutamate receptor ionotropic, kainate 1 (P22756 whole entry): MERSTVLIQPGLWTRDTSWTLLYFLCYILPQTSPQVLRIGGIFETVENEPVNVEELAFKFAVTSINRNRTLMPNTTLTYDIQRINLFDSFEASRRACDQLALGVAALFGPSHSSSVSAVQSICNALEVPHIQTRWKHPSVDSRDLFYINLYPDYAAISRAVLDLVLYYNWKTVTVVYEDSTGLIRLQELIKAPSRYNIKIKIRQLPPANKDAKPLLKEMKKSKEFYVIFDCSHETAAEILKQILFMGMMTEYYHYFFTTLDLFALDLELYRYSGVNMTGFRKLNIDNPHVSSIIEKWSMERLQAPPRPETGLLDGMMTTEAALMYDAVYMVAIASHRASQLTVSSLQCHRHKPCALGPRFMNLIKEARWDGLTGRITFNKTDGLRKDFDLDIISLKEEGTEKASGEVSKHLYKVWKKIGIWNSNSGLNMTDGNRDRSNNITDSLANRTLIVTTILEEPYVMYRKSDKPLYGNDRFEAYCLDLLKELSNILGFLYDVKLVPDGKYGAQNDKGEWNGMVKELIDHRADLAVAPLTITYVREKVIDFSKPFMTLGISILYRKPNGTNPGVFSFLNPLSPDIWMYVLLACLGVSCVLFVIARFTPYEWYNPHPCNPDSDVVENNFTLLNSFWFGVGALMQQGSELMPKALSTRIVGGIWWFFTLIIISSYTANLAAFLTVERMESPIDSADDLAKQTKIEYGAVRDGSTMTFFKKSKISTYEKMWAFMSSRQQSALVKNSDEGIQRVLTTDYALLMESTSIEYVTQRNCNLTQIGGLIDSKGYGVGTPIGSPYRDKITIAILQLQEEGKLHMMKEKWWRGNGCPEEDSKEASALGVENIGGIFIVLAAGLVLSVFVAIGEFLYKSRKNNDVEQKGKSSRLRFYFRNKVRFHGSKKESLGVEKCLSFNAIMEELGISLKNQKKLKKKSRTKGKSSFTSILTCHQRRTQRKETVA

Ki [1] | Ki [2] | Ki (Glutamate receptor 3) | Structure (SMILES)
> 10 µM | 3.6 µM | 0.025 µM | Cc1onc(C(=O)O)c1C[C@H](N)C(=O)O
> 10 µM | > 10 µM | – | Cc1onc(C(=O)O)c1C[C@@H](N)C(=O)O [(R)-ACPA]
4.5 µM | > 10 µM | 9.4 µM | N[C@@H](Cc1conc1C(=O)O)C(=O)O [(R)-Demethyl-ACPA]
> 10 µM | 6.3 µM | 0.02 µM | Cc1onc(C(=O)O)c1CC(N)C(=O)O [(S)-2-AMINO-3-(3-CARBOXY-5-METHYLISOXAZOL-4-YL)PROPIONIC ACID]
> 10 µM | – | 0.039 µM and 0.1 µM | N[C@@H](Cc1conc1C(=O)O)C(=O)O [Demethyl-ACPA]
> 10 µM | > 10 µM | 0.27 µM | C[C@H](NC(=O)CNC(=O)[C@@H](NC(=O)[C@H](Cc1ccccc1)NC(=O)CNC(=O)CNC(=O)[C@@H](N)Cc1ccccc1)[C@@H](C)O)C(=O)N[C@@H](CCCN=C(N)N)C(=O)N[C@@H](CCCCN)C(=O)N[C@@H](CO)C(=O)N[C@@H](C)C(=O)N[C@@H](CCCN=C(N)N)C(=O)N[C@@H](CCCCN)C(N)=O [OFQ/N (1-11),[Tyr10]]
